pIC50: −log10 of the molar value.

Results on 29 molecules are retold here after patent publication US20250101052A1, “COMPOUND FOR EGFR KINASE INHIBITOR, COMPOSITION, AND USE THEREOF” (INNOVATION INSTITUTE FOR ARTIFICIAL INTELLIGENCE IN …, priority 2021, published 2025).

In the experiment the target is EGFR^L858R/T790M/C797S kinase (Homo sapiens (Human), UniProt P00533, C797S/L858R/T790M). As to the kind of experiment: EGFR^L858R/T790M/C797S kinase inhibitory activity experiment. In kind it is biochemical. To be noted: in vitro. The procedure: EGFRL^858R/T790M/C797S kinase inhibitory activity experiment: The compounds of the present invention have excellent in-vitro inhibitory activity against EGFR^L858R/T790M/C797S kinase
Sequence of EGFR^L858R/T790M/C797S kinase (P00533 25-1210 T790M/C797S/L858R): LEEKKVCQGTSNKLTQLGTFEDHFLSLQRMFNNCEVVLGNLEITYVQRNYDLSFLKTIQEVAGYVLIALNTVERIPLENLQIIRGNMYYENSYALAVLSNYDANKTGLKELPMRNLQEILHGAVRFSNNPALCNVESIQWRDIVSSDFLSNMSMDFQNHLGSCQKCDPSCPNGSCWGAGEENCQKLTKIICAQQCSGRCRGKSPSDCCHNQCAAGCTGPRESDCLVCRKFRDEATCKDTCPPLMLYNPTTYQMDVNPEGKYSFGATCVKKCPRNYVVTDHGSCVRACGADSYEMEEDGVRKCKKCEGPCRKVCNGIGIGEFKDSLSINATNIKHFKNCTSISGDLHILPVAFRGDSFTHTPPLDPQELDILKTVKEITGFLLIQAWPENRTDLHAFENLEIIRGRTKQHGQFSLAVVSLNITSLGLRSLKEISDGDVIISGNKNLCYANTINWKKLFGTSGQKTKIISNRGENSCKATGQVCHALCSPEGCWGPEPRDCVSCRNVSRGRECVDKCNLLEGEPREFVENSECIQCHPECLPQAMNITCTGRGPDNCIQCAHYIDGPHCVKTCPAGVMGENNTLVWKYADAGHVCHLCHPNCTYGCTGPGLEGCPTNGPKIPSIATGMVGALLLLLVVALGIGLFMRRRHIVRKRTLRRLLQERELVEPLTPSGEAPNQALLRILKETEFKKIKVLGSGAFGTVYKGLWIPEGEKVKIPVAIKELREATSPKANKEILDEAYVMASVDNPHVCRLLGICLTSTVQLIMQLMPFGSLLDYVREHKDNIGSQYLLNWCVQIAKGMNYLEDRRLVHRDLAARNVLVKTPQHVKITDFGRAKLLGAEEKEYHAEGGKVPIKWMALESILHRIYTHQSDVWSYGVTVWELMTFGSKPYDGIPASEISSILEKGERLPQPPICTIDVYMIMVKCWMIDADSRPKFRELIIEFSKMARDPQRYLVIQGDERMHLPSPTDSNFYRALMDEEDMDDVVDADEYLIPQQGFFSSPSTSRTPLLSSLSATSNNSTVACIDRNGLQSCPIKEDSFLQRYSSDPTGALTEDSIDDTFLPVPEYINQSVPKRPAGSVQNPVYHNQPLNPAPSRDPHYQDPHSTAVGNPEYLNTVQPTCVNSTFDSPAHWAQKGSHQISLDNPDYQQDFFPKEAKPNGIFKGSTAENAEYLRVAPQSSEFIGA
• Centrifuge (manufacturer: Eppendorf, model: 5430) • Microplate reader (manufacturer: Perkin Elmer, model: Caliper EZ ReaderII) • Echo 550 (manufacturer: Labcyte, model: Echo 550) • Experimental Method • Compound preparation: • A 10 mM storage solution was prepared.
(1) 1×Kinase buffer was prepared.
(2) Preparation of concentration gradient of compound: The tested compound has a test concentration starting from 1 μM, diluted 10 times, with 10 concentrations, and subjected to single-well or multi-well detection. The compound was diluted to a 100% DMSO solution with a final concentration of 100 times in a 384 source plate. […] of the compound at a final concentration of 100 times was transferred to the target plate 384-well-plate using the pipette Echo 550.
(3) A kinase solution with a final concentration of 2.5 times was prepared using 1× Kinase buffer.
(4) 10 μL of the kinase solution with the final concentration of 2.5 times was added to a compound well and a positive control well, respectively; 10 μL of 1×Kinase buffer was added to a negative control well.
(5) Centrifugation was conducted at 1000 rpm for 30 seconds, and the reaction plate was shaken and mixed well, and incubated at a room temperature for 10 minutes.
(6) A mixed solution of ATP with a final concentration of 5/3 times and Kinase substrate 22 was prepared using 1×Kinase buffer.
(7) A mixed solution of 15 μL of ATP with a final concentration of 5/3 times and a substrate was added for initial reaction.
(8) The 384-well-plate was centrifuged at 1000 rpm for 30 seconds, shaken and mixed well, and incubated at a room temperature for 60 minutes.
(9) 30 μL of a termination detection solution was added to stop the kinase reaction. Centrifugation was conducted at 1000 rpm for 30 seconds. Shaking and mixing well were conducted.
(10) The conversion rate was read using Caliper EZ Reader.
where Conversion %_sample is the conversion rate reading of the sample; Conversion %_min: the average value of negative control wells, representing the conversion rate reading of wells without enzyme activity; Conversion %_max: the average value of positive control wells, representing the conversion rate reading of wells without compound inhibition; % Inhibition represents the inhibition rate.
Fitting of Dose-Response Curve
Using the log value of concentration as the X-axis and the percentage inhibition rate as the Y-axis, the dose-response curve was fitted using the log(inhibitor) vs. response —Variable slope of the analysis software GraphPad Prism 5 to obtain the IC50 value of each compound on enzyme activity.
Turning to `CCc1cc(Nc2ncc(Cl)c(Nc3cc(C)c(C)cc3P(C)(C)=O)n2)c(OC)cc1N1CCC(N2CCOCC2)CC1` [Compound 14, (2-((5-chloro-2-((5-ethyl-2-methoxy-4-(4-morpholinopiperidin-1-yl)phenyl)amino)pyrimidin-4-yl)amino)-4,5-dimethylphenyl)dimethylphosphine oxide], the pIC50 is 8.08.
Under `CCc1cc(Nc2ncc(Cl)c(Nc3cc(Cl)c(Cl)cc3P(C)(C)=O)n2)c(OC)cc1N1CC2(CCN(C)CC2)C1` [Compound 36] stands 9.02; under `COc1cc(N2CC3(CCC(N(C)C)CC3)C2)c(C)cc1Nc1ncc(Cl)c(Nc2ccc(C)c(C)c2P(C)(C)=O)n1` [Compound 3, (6-((5-Chloro-2-((4-(7-(dimethylamino)-2-azaspiro[3.5]nonan-2-yl)-2-methoxy-5-methylphenyl)amino)pyrimidin-4-yl)amino)-2,3-dimethylphenyl)dimethylphosphine oxide], 7.68; under `CCc1cc(Nc2ncc(Cl)c(Nc3cccc(Cl)c3P(C)(C)=O)n2)c(OC)cc1N1CC2(CCN(CC)CC2)C1` [Compound 47], 9.11.
With `COc1cc(N2CC3(CCN(CC(F)F)CC3)C2)c(Cl)cc1Nc1ncc(Cl)c(Nc2cc(C)c(C)cc2P(C)(C)=O)n1` [Compound 42], the pIC50 was 9.12. This pIC50 and that of the molecule before are within 0.2 log units of each other.
Take `CCc1cc(Nc2ncc(Cl)c(Nc3cc(C)c(C)cc3P(C)(C)=O)n2)c(OC)cc1N1CC2(CCN(C)CC2)C1` [Compound 44]: the pIC50 is 9.32.
`COc1cc(N2CCC(N3CCN(C)CC3)CC2)c(C)cc1Nc1ncc(Cl)c(Nc2ccc(C)c(C)c2P(C)(C)=O)n1` [BD-2, (6-((5-Chloro-2-((2-methoxy-5-methyl-4-(4-(4-methylpiperazin-1-yl)piperidin-1-yl)phenyl)amino)pyrimidin-4-yl)amino)-2,3-dimethylphenyl)dimethylphosphine oxide] had a pIC50 of 8.30.
Under `CCc1cc(Nc2ncc(Cl)c(Nc3cccc(Cl)c3P(C)(C)=O)n2)c(OC)cc1N1CC2(CCN(C)CC2)C1` [Compound 46] stands 9.20.
On to `CCN1CCC2(CC1)CN(c1cc(OC)c(Nc3ncc(Cl)c(Nc4ccc(C)c(C)c4P(C)(C)=O)n3)cc1C)C2` [Compound 33], for which the pIC50 is 9.14.
The value for `CCc1cc(Nc2ncc(Cl)c(Nc3cc(C)c(C)cc3P(C)(C)=O)n2)c(OC)cc1N1CC2(CCC(N(C)C)CC2)C1` [Compound 10, (2-((5-Chloro-2-((4-(7-(dimethylamino)-2-azaspiro[3.5]nonan-2-yl)-5-ethyl-2-methoxypheny 1)amino)pyrimidin-4-yl)amino)-4,5-dimethylphenyl)dimethylphosphine oxide] was 7.89; that for `CCc1cc(Nc2ncc(Cl)c(Nc3ccc(C)c(C)c3P(C)(C)=O)n2)c(OC)cc1N1CC2(CCN(CC(F)F)CC2)C1` [Compound 28] was 9.00.
Under `CCc1cc(Nc2ncc(Cl)c(Nc3ccc(C)c(C)c3P(C)(C)=O)n2)c(OC)cc1N1CC2(CCN(CC)CC2)C1` [Compound 27] stands 9.09; under `COc1cc(N2CC3(CCN(C)CC3)C2)c(Cl)cc1Nc1ncc(Cl)c(Nc2ccc(C)c(C)c2P(C)(C)=O)n1` [Compound 34], 9.08; under `CCc1cc(Nc2ncc(Cl)c(Nc3ccc(C)c(C)c3P(C)(C)=O)n2)c(OC)cc1N1CCC2(CC1)CN(COC)C2` [Compound 31], 8.38.
Consider `CCc1cc(Nc2ncc(Cl)c(Nc3cc(Cl)c(Cl)cc3P(C)(C)=O)n2)c(OC)cc1N1CC2(CCN(C3CC3)CC2)C1` [Compound 37], for which the pIC50 was 9.31.
Take `CCc1cc(Nc2ncc(Cl)c(Nc3ccc(C)c(C)c3P(C)(C)=O)n2)c(OC)cc1N1CC2(CCC(CC#N)CC2)C1` [Compound 29, 2-(2-(4-((5-chloro-4-((2-(dimethylphosphoryl)-3,4-dimethylphenyl)amino)pyrimidin-2-yl)amino)-2-ethyl-5-methoxyphenyl)-2-azaspiro[3.5]nonane-7-yl)acetonitrile]: the pIC50 is 7.74.
The molecule `CCc1cc(Nc2ncc(Cl)c(Nc3cc(Cl)c(Cl)cc3P(C)(C)=O)n2)c(OC)cc1N1CC2(CCN(CC(F)F)CC2)C1` [Compound 38] showed a pIC50 of 9.23.
For `COc1cc(N2CC3(CCN(C)CC3)C2)c(Cl)cc1Nc1ncc(Cl)c(Nc2cc(C)c(C)cc2P(C)(C)=O)n1` [Compound 40], the negative logarithm of the IC50 (pIC50) is 9.07. The pIC50 values of the last two molecules are within 0.2 log units of each other.
The value for `CCc1cc(Nc2ncc(Cl)c(Nc3cc(C)c(C)cc3P(C)(C)=O)n2)c(OC)cc1N1CC2(CCN(CC(F)F)CC2)C1` [Compound 45] was 9.13; that for `CCN1CCC2(CC1)CN(c1cc(OC)c(Nc3ncc(Cl)c(Nc4ccc(C)c(C)c4P(C)(C)=O)n3)cc1Cl)C2` [Compound 35] was 9.17.
The value for `CCc1cc(Nc2ncc(Cl)c(Nc3cc(C)c(C)cc3P(C)(C)=O)n2)c(OC)cc1N1CCC2(CC1)CN(C)C2` [Compound 20, (2-((5-Chloro-2-((5-ethyl-2-methoxy-4-(2-methyl-2,7-diazaspiro[3.5]non-7-yl)phenyl)amino)pyrimidin-4-yl)amino)-4,5-dimethylphenyl)dimethylphosphine oxide] was 7.54; that for `CCc1cc(Nc2ncc(Cl)c(Nc3ccc(C)c(C)c3P(C)(C)=O)n2)c(OC)cc1N1CCC2(CC1)CC(N1CC(C#N)C1)C2` [Compound 49, 1-(7-(4-((5-chloro-4-((2-(dimethylphosphoryl)-3,4-dimethylphenyl)amino)pyrimidin-2-yl)amino)-2-ethyl-5-methoxyphenyl)-7-azaspiro[3.5]nonan-2-yl)azetidine-3-carbonitrile] was 8.08.
Take `COc1cc(N2CC3(CCC(N(C)C)CC3)C2)ccc1Nc1ncc(Cl)c(Nc2ccc(C)c(C)c2P(C)(C)=O)n1` [Compound 2, (6-((5-Chloro-2-((4-(7-(dimethylamino)-2-azaspiro[3.5]nonane-2-yl)-2-methoxyphenyl)amino)pyrimidin-4-yl)amino)-2,3-dimethylphenyl)dimethylphosphine oxide]: the negative-log IC50 (pIC50) was 7.05.
Under `CCc1cc(Nc2ncc(Cl)c(Nc3cc(C)c(C)cc3P(C)(C)=O)n2)c(OC)cc1N1CCC(N2CCN(C)CC2)CC1` [Compound 11, (2-((5-chloro-2-((5-ethyl-2-methoxy-4-(4-(4-methylpiperazin-1-yl)piperidin-1-yl)phenyl)amino)pyrimidin-4-yl)amino)-4,5-dimethylphenyl)dimethylphosphine oxide] stands 8.30.
Under `CCc1cc(Nc2ncc(Cl)c(Nc3ccc(C)c(C)c3P(C)(C)=O)n2)c(OC)cc1N1CCC2(CC1)CN(C(C)=O)C2` [Compound 30, 1-(7-(4-((5-chloro-4-((2-(dimethylphosphoryl)-3,4-dimethylphenyl)amino)pyrimidin-2-yl)amino)-2-ethyl-5-methoxyphenyl)-2,7-diazaspiro[3.5]nonan-2-yl)ethan-1-one] stands 8.17; under `CCc1cc(Nc2ncc(Cl)c(Nc3cc(C)cc(C)c3P(C)(C)=O)n2)c(OC)cc1N1CCC2(CC1)CC(N(C)C)C2` [Compound 18, (2-((5-Chloro-2-((4-(2-(dimethylamino)-7-azaspiro[3.5]non-7-yl)-5-ethyl-2-methoxyphenyl)amino)pyrimidin-4-yl)amino)-4,6-dimethylphenyl)dimethylphosphine oxide], 7.44.
Molecule `COc1cc(N2CCC3(CC2)CC(N(C)C)C3)ccc1Nc1ncc(Cl)c(Nc2cc(C)c(C)cc2P(C)(C)=O)n1` [Compound 1, (6-((5-Chloro-2-((4-(2-(dimethylamino)-7-azaspiro[3.5]nonan-7-yl)-2-methoxyphenyl)amino)pyrimidin-4-yl)amino)-3,4-dimethylphenyl)dimethylphosphine oxide] gave a pIC50 of 7.57.
The value for `CCc1cc(Nc2ncc(Cl)c(Nc3cc(Cl)c(Cl)cc3P(C)(C)=O)n2)c(OC)cc1N1CC2(CCC(CC#N)CC2)C1` [Compound 39, 2-(2-(4-((5-chloro-4-((4,5-dichloro-2-(dimethylphosphoryl)phenyl)amino)pyrimidin-2-yl)amino)-2-ethyl-5-methoxyphenyl)-2-azaspiro[3.5]nonan-7-yl)acetonitrile] was 7.92; that for `COc1cc(N2CCC3(CC2)CC(N(C)C)C3)c(C)cc1Nc1ncc(Cl)c(Nc2cc(C)c(C)cc2P(C)(C)=O)n1` [Compound 9, (2-((5-Chloro-2-((4-(2-(dimethylamino)-7-azaspiro[3.5]nonan-7-yl)-2-methoxy-5-methylphenyl)amino)pyrimidin-4-yl)amino)-4,5-dimethylphenyl)dimethylphosphine oxide] was 8.15.

By pIC50 is commonly meant the IC50 on a negative log10 scale, so that one unit is a factor of ten. A low value points to a high IC50.
